Results on 18 compounds are retold here after patent publication US20240391936A1, “TETRAHYDROTHIENO PYRIDINE DERIVATIVES AS DDRS INHIBITORS” (CHIESI FARMACEUTICI S.P.A., priority 2021, published 2024).

Assay [1] deals with T1, DDR1 (Homo sapiens, UniProt Q08345). The assay can be described thus: DDR1 binding assay (LanthaScreen Europium Kinase Binding assay). Also on record: purchased Carna Biosciences. The conditions noted are these: binding assay, 5 nM DDR1, 20 nM Kinase Tracer 178; Ki from IC50 by Cheng-Prusoff; read-out: Ki DDR1. The essentials: (§1)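 TR-FRET tracer-displacement format: 665/615 nm emission ratio (340 nm excitation) gave IC50 by 4-parameter fit, then Ki via Cheng-Prusoff. Each kinase at 5 nM with 2 nM Eu-anti-GST antibody and Tracer 178 (DDR1 20 nM, DDR2 10 nM), 1 h, room temperature, HEPES pH 7.5 buffer.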
T1 sequence (Q08345 19-913): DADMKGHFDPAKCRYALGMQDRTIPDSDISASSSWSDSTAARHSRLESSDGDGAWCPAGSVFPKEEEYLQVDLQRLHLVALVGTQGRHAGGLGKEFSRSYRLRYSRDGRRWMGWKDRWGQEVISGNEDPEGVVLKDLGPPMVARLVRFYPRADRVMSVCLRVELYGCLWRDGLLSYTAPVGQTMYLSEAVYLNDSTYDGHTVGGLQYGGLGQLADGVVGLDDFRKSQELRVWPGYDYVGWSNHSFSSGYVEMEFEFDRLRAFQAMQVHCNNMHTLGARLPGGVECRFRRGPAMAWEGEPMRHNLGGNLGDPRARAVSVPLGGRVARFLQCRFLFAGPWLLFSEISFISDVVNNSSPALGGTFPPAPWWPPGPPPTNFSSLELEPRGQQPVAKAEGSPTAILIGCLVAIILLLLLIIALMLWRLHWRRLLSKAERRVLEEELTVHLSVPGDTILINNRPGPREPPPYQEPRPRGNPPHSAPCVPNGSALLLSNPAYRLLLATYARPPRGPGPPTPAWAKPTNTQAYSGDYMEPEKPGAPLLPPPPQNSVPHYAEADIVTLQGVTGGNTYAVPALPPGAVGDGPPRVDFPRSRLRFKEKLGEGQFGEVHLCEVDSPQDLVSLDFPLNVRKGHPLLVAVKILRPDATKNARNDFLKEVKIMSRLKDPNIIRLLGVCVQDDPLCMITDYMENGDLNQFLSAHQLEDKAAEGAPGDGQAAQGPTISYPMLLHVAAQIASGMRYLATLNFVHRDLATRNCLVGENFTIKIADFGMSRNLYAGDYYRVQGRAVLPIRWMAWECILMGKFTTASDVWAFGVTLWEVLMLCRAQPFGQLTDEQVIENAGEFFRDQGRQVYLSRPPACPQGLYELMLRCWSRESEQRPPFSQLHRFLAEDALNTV

Assay [2] has as its target T2, DDR2 (Homo sapiens, UniProt Q16832).
T2 sequence (Q16832 22-855): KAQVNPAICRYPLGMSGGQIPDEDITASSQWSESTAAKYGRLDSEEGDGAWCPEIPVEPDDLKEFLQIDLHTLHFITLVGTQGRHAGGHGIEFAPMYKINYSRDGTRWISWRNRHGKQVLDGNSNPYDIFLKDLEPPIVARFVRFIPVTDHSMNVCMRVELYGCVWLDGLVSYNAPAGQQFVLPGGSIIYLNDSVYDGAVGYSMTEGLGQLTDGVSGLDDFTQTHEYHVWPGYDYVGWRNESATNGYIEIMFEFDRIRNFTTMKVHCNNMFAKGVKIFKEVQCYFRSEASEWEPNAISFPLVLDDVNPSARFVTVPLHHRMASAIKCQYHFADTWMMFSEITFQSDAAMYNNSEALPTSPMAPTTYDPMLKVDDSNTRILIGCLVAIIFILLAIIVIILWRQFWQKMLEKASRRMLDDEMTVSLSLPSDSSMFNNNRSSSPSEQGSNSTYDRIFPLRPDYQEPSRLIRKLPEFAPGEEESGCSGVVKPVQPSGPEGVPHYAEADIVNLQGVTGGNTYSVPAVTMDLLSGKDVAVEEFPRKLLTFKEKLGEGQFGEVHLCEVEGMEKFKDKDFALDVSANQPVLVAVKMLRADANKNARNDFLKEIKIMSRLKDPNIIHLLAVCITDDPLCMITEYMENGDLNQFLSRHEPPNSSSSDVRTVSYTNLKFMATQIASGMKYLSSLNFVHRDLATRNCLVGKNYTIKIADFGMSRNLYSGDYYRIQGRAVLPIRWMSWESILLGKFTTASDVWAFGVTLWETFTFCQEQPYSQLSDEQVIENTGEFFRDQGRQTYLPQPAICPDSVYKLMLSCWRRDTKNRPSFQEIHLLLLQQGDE
The assay can be described thus: DDR2 binding assay (LanthaScreen Europium Kinase Binding assay). The arrangement: purchased Life Technologies. As to conditions: binding assay, 5 nM DDR2, 10 nM Kinase Tracer 178; Ki from IC50 by Cheng-Prusoff; read-out: Ki DDR2. In a few lines: as §1
For orientation: Time-resolved FRET reads energy transfer from a long-lived donor to a nearby acceptor.

In assay [3] the target is T1, DDR1. The assay can be described thus: DDR1 cell based assay (PathHunter U2OS DDR1 assay). Also on record: host or cells: U2OS-DDR1 (PathHunter). The conditions noted are these: U2OS-DDR1 cells, bovine Type II Collagen 20 μg/ml. In a few lines: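 Receptor activation measured by enzyme-fragment complementation luminescence in engineered U2OS cells. Compound added 30 min before overnight challenge with 20 μg/ml bovine collagen II; data scaled between vehicle and collagen-stimulated controls, IC50 derived by four-parameter variable-slope fitting.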

pIC50, pKi: −log10 of the molar value.

By pKi is commonly meant the Ki on a negative log10 scale, so that one unit is a factor of ten. The term pIC50 denotes −log10 of the IC50, conventionally taken in molar units. A low value points to a high IC50. For the compound `CN1CC2(C1)CN(c1ccc3ncc(C(=O)N4CCc5c(C(=O)Nc6cccc(C(F)(F)F)c6)csc5C4)n3c1)C2` [Example 166, 6-(6-(6-methyl-2,6-diazaspiro[3.3]heptan-2-yl)imidazo[1,2-a]pyridine-3-carbonyl)-N-(3-(trifluoromethyl)phenyl)-4,5,6,7-tetrahydrothieno[2,3-c]pyridine-3-carboxamide], the pKi in assay [1] and in assay [2] was over 7.60 throughout. Also, the pIC50 in assay [3] is 7.10 to 7.30.

For `CC(C)c1cc(NC(=O)c2csc3c2CCN(C(=O)c2cnc4ccccn24)C3)n(C)n1` [Example 36, 6-(imidazo[1,2-a]pyridine-3-carbonyl)-N-(3-isopropyl-1-methyl-1H-pyrazol-5-yl)-4,5,6,7-tetrahydrothieno[2,3-c]pyridine-3-carboxamide], the pKi in assay [1] and in assay [2] was over 7.60 each time. Besides, the pIC50 in assay [3] is 7.10 to 7.30.

On to `O=C(Nc1cncc(C(F)(F)F)c1)c1csc2c1CCN(C(=O)c1cnn3cccnc13)C2` [Example 109, 6-(pyrazolo[1,5-a]pyrimidine-3-carbonyl)-N-(5-(trifluoromethyl)pyridin-3-yl)-4,5,6,7-tetrahydrothieno[2,3-c]pyridine-3-carboxamide], for which the pKi in assay [1] and in assay [2] was over 7.60 each time. In addition, in assay [3], the pIC50 was 7.30 to 7.60.

On to `O=C(Nc1ccc(OC2COC2)c(C(F)(F)F)c1)c1csc2c1CCN(C(=O)c1cnc3ccccn13)C2` [Example 13, 6-(imidazo[1,2-a]pyridine-3-carbonyl)-N-(4-(oxetan-3-yloxy)-3-(trifluoromethyl)phenyl)-4,5,6,7-tetrahydrothieno[2,3-c]pyridine-3-carboxamide], for which the pKi in assay [1] and in assay [2] was over 7.60 in each case. In assay [3], the pIC50 is over 7.60.

For `Cn1nc(C(C)(C)C)cc1NC(=O)c1csc2c1CCN(Cc1cnc3[nH]ncc3c1)C2` [Example 77, 6-((1H-pyrazolo[3,4-b]pyridin-5-yl)methyl)-N-(3-(tert-butyl)-1-methyl-1H-pyrazol-5-yl)-4,5,6,7-tetrahydrothieno[2,3-c]pyridine-3-carboxamide], the pKi in assay [1] and in assay [2] was over 7.60 throughout. In assay [3], this compound had a pIC50 of over 7.60.

`CCCc1cc(NC(=O)c2csc3c2CCN(C(=O)c2cnc4ccccn24)C3)n(C)n1` [Example 39, 6-(imidazo[1,2-a]pyridine-3-carbonyl)-N-(1-methyl-3-propyl-1H-pyrazol-5-yl)-4,5,6,7-tetrahydrothieno[2,3-c]pyridine-3-carboxamide]: the negative logarithm of the Ki (pKi) in assay [1] and in assay [2] was over 7.60 in each case. In assay [3], the pIC50 was 7.30 to 7.60.

On to `CN1CC=C(c2ccc3ncc(C(=O)N4CCc5c(C(=O)Nc6cccc(C(F)(F)F)c6)csc5C4)n3c2)CC1` [Example 167, 6-(6-(1-methyl-1,2,3,6-tetrahydropyridin-4-yl)imidazo[1,2-a]pyridine-3-carbonyl)-N-(3-(trifluoromethyl)phenyl)-4,5,6,7-tetrahydrothieno[2,3-c]pyridine-3-carboxamide], for which the pKi in assay [1] and in assay [2] was over 7.60 in each case. The compound also showed a pIC50 in assay [3] of 7.30 to 7.60.

With `O=C(Nc1cccc(C(F)(F)F)c1)c1csc2c1CCN(C(=O)c1cnc3n1CCOC3)C2` [Example 96, 6-(5,6-dihydro-8H-imidazo[2,1-c][1,4]oxazine-3-carbonyl)-N-(3-(trifluoromethyl)phenyl)-4,5,6,7-tetrahydrothieno[2,3-c]pyridine-3-carboxamide], the pKi in assay [1] and in assay [2] was over 7.60 in each case. Besides, the pIC50 in assay [3] is over 7.60.

As for `CC(F)(F)c1cncc(NC(=O)c2csc3c2CCN(C(=O)c2cnn4ccncc24)C3)c1` [Example 122, N-(5-(1,1-difluoroethyl)pyridin-3-yl)-6-(pyrazolo[1,5-a]pyrazine-3-carbonyl)-4,5,6,7-tetrahydrothieno[2,3-c]pyridine-3-carboxamide], the pKi in assay [1] and in assay [2] was over 7.60 each time. This compound gave a pIC50 in assay [3] of 7.10 to 7.30.

For the compound `O=C(Nc1cccc(C(F)(F)F)c1)c1csc2c1CCN(Cc1cnn3cccnc13)C2` [Example 89, 6-(pyrazolo[1,5-a]pyrimidin-3-ylmethyl)-N-(3-(trifluoromethyl)phenyl)-4,5,6,7-tetrahydrothieno[2,3-c]pyridine-3-carboxamide], the pKi in assay [1] and in assay [2] was over 7.60 throughout. For the same compound, in assay [3], the pIC50 is over 7.60.

Turning to `O=C(Nc1cc(N2CCOCC2)cc(C(F)(F)F)c1)c1csc2c1CCN(C(=O)c1cnc3ccccn13)C2` [Example 181, 6-(imidazo[1,2-a]pyridine-3-carbonyl)-N-(3-morpholino-5-(trifluoromethyl)phenyl)-4,5,6,7-tetrahydrothieno [2,3-c]pyridine-3-carboxamide], the pKi in assay [1] and in assay [2] was over 7.60 throughout. In assay [3], this compound showed a pIC50 of 7.30 to 7.60.

Take `COc1ncc(NC(=O)c2csc3c2CCN(C(=O)c2cnn4ccncc24)C3)cc1C(F)(F)F` [Example 121, N-(6-methoxy-5-(trifluoromethyl)pyridin-3-yl)-6-(pyrazolo[1,5-a]pyrazine-3-carbonyl)-4,5,6,7-tetrahydrothieno[2,3-c]pyridine-3-carboxamide]: the pKi in assay [1] and in assay [2] was over 7.60 in each case. For the same compound, the pIC50 in assay [3] is 7.10 to 7.30.

As to `CC(C)(C)c1cncc(NC(=O)c2csc3c2CCN(C(=O)c2cnc4ccccn24)C3)c1` [Example 117, N-(5-(tert-butyl)pyridin-3-yl)-6-(imidazo[1,2-a]pyridine-3-carbonyl)-4,5,6,7-tetrahydrothieno[2,3-c]pyridine-3-carboxamide], the pKi in assay [1] and in assay [2] was over 7.60 in each case. In assay [3], this compound gave a pIC50 of over 7.60.

Take `CC(C)(C)c1cc(NC(=O)c2csc3c2CCN(C(=O)c2cnc4ccccn24)C3)n(CCO)n1` [Example 64, N-(3-(tert-butyl)-1-(2-hydroxyethyl)-1H-pyrazol-5-yl)-6-(imidazo[1,2-a]pyridine-3-carbonyl)-4,5,6,7-tetrahydrothieno[2,3-c]pyridine-3-carboxamide]: the pKi in assay [1] and in assay [2] was over 7.60 in each case. In assay [3], this compound gave a pIC50 of 7.30 to 7.60.

For `CN(C)CC1CCN(Cc2cc(NC(=O)c3csc4c3CCN(C(=O)c3cnc5ccccn35)C4)cc(C(F)(F)F)c2)C1` (stereo not drawn) [Example 55, N-(3-((3-((dimethylamino)methyl)pyrrolidin-1-yl)methyl)-5-(trifluoromethyl)phenyl)-6-(imidazo[1,2-a]pyridine-3-carbonyl)-4,5,6,7-tetrahydrothieno[2,3-c]pyridine-3-carboxamide], the pKi in assay [1] and in assay [2] was over 7.60 each time. The same compound showed a pIC50 in assay [3] of 7.10 to 7.30.

For the compound `COCCN(C)Cc1cc(NC(=O)c2csc3c2CCN(C(=O)c2cnc4ccccn24)C3)cc(C(F)(F)F)c1` [Example 61, 6-(imidazo[1,2-a]pyridine-3-carbonyl)-N-(3-(((2-methoxyethyl)(methyl)amino)methyl)-5-(trifluoromethyl)phenyl)-4,5,6,7-tetrahydrothieno[2,3-c]pyridine-3-carboxamide], the negative-log Ki (pKi) in assay [1] and in assay [2] was over 7.60 in each case. Besides, the pIC50 in assay [3] is 7.30 to 7.60.

On to `CC(C)Cc1cc(NC(=O)c2csc3c2CCN(C(=O)c2cnc4ccccn24)C3)n(C)n1` [Example 43, 6-(imidazo[1,2-a]pyridine-3-carbonyl)-N-(3-isobutyl-1-methyl-1H-pyrazol-5-yl)-4,5,6,7-tetrahydrothieno[2,3-c]pyridine-3-carboxamide], for which the pKi in assay [1] and in assay [2] was over 7.60 throughout. Further, the pIC50 in assay [3] was 7.30 to 7.60.

As for `O=C(Nc1cncc(C(F)(F)F)c1)c1csc2c1CCN(C(=O)c1cnc3cc(F)ccn13)C2` [Example 144, 6-(7-fluoroimidazo[1,2-a]pyridine-3-carbonyl)-N-(5-(trifluoromethyl)pyridin-3-yl)-4,5,6,7-tetrahydrothieno[2,3-c]pyridine-3-carboxamide], the pKi in assay [1] and in assay [2] was over 7.60 throughout. In addition, the pIC50 in assay [3] was over 7.60.
